Experiment: storage stability of compound (A) succinate alone or mixed with additive; amount of analogs by HPLC (Experimental Example 1A)
Format: physicochemical
Procedure: Comparative Examples 1A, 2A and 3A were preserved in a glass bottle with an opened cap at 40° C., 75% RH for 2 weeks, and the amount of analogs due to decomposition of compound (A) was measured, based on which the storage stability was evaluated.
The amounts of the analogs were measured by high performance liquid chromatography (HPLC) under the conditions of Table 11A. As a result, an analogue that specifically increases at relative retention time (RRT) of about 1.65 was observed.

total amount of analogs (%) (40° C./75% RH 2 wk (with opened cap), glass bottle): 0.30%
total amount of analogs (%) (initial): 0.30%
Structure (SMILES): Cn1c(=O)cc(N2CCC[C@@H](N)C2)n(Cc2cc(F)ccc2C#N)c1=O [compound (A), 2-[[6-[(3R)-3-amino-1-piperidinyl]-3,4-dihydro-3-methyl-2,4-dioxo-1(2H)-pyrimidinyl]methyl]-4-fluorobenzonitrile]

From US7994183B2, “Solid preparation comprising 2-[[6-[(3R)-3-amino-1-piperidinyl]-3,4-dihydro-3-methyl-2,4-dioxo-1(2H)-pyrimidinyl]methyl]-4-fluorobenzonitrile” (Takeda Pharmaceutical Company Limited, priority 2007, dated 2011)
